Experimental data as given in patent US20110207745A1 (priority 2009, published 2011).
In brackets after ≈: the same amount, converted by molar mass. Where two headings read alike, the source gives them in different places.

Tests used:
[1] = Dissociation constant (pKa); format: physicochemical; details: piperazine nitrogen of free base
[2] = Partition coefficient LogD; format: physicochemical; details: pH 7.4; free base
[3] = test system: rat; test: Punished responding procedure (modified Geller-Seifter conflict test); details: for Rate of Responding: Punished responding / Rate of Responding: Unpunished responding: 60 minute pretreatment
Excerpt: Method. In the conflict test, hungry animals were trained to lever-press for food delivery in a standard operant chamber under 2 conditions. In the first condition, referred to as the unsuppressed component, food was delivered on average after 17 lever-presses were made (also called a VR17 schedule of reinforcement). In the second condition, referred to as the suppressed component and signaled by flashing lights inside the operant chamber, food was also delivered following an average of 17 lever-presses, but electric shock was additionally delivered to the floor of the cage under a separate VR17 schedule. Daily sessions consisted of 5 alternating presentations of each component type: suppressed (3 minutes in duration) and unsuppressed (2 minutes in duration). The number of lever presses emitted in the suppressed component was obviously low relative to the unsuppressed component.
Drug Administration and Preparation. […] Monday and Wednesday were washout/baseline days.
Apparatus. Standard 2-lever operant chambers were used (Med Associates). The chambers were fitted with 2 retractable response levers and a stimulus lamp over each of the 2 levers. A pellet dispenser delivered 45 mg food pellets, (Bio Serv) to a cup located inside of the chamber below and between the 2 response levers. A lamp at the top and back of the chamber served as houselights. The grid floors of the operant chambers were interfaced to shock generators and scramblers (Med Associates). All events in the chambers were controlled and monitored by a microprocessor.
Procedures. There were 2 components in the procedure: 1) an unsuppressed responding component (unpunished) with 2 minutes in duration; and 2) a suppressed responding component (punished) with 3 minutes in duration.
In the unpunished component, the houselights and both stimulus lamps over the response levers were turned on, the lever on the left-hand side of the chamber extended, and a food pellet was delivered following an average of 17 responses on the lever in the chamber (range 3 to 40 responses)—a variable-ratio 17 schedule (VR17).
In the punished component (which followed the unpunished component), the right-hand lever was extended into the chamber; the stimulus lamps and houselights were turned on and off at 1 second intervals, in succession, which served as a cue for this component; and food was available under a VR17 schedule, but was accompanied by an electrical current (0.5 second duration) that was delivered to the grid floor of the chamber under an independent VR17 schedule. The level of the current was adjusted for each individual subject until responding was reduced in the punished component to a level that was about 5% to 10% that of the unpunished component, and ranged from 0.2 mA to 0.75 mA. Unpunished and punished components were separated by 10 second time-out periods in which both response levers were retracted and all stimulus lamps turned off. 2 minute unpunished and 3 minute punished components alternated until 5 of each were completed. Daily sessions always began with the unpunished responding component. […] Several doses were tested on a given test day in different subjects. Each dose, then, was tested in different sub-set of rats.
Data Analysis. The dependent variables recorded were the rate of responding in unpunished and punished components (total responses/total time under the component) and the number of shocks delivered.

[4] = Solubility in simulated biological media; format: physicochemical; details: thermodynamic from solid, mean ± SD, n = 2
Excerpt: (§1) Solubility and Dissolution Rate Data.
(§2) Solubility and Dissolution Rate Data. […]

[5] = HPLC area %, listed as Amorphous Mono-HCl Salt of Compound A1
Procedure: (§3) Stress Experiments. Solids are stressed under different temperature or relative humidity (RH) environments for a measured time period. Specific RH values are achieved by placing the sample inside sealed chambers containing saturated salt solutions, as known in the art. The salt solutions are selected and prepared following an ASTM standard procedure. Samples are analyzed by XRPD immediately after removal from the stress environment.
Analyses are carried out on an Agilent® model 1100 high performance liquid chromatograph using gradient elution on a reversed phase column utilizing ultraviolet (UV) detection. Approximately 25 mg of the sample is weighed accurately and dissolved in methanol/water/trifluoroacetic acid (35:65:0.05) to a volume of 50 mL. The sample solution is analysed using the conditions specified below:
The content of the drug and related substances are quantified by area (%).
Chemical Stability. The chemical stability of Form I of the mono-HCl salt of Compound A1 was assessed by stressing the material at various temperature/relative humidity/light conditions, then analyzing by HPLC.
Chemical Stability Data. The chemical stability of a sample of Form I of the sesquifumarate salt of Compound A1 was assessed by stressing the material at various temperature/relative humidity/light conditions, then analyzing by HPLC.

[6] = for Water content: 3 days, KF
Procedure: as §3
Modulated differential scanning calorimetry data are obtained on a TA Instruments differential scanning calorimeter 2920 equipped with a refrigerated cooling system (RCS). The sample is placed into an aluminum DSC pan, and the weight is accurately recorded. The pan is covered with a lid with is either crimped or uncrimped. MDSC data are obtained using a modulation amplitude of +/−0.8° C. and a 60 second period with an underlying heating rate of about 2° C./min. The temperature and the heat capacity are calibrated using indium metal and sapphire as the calibration standards, respectively. The reported glass transition temperature is obtained from the inflection of the step change in the reversible heat flow versus temperature curve.
Physical Stability. Physical stability measurements were performed on the amorphous form of the mono-HCl salt of Compound A1. The amorphous HCl salt prepared by spray drying was set down under two conditions (40° C./75% RH and 25° C./60% RH) for physical stability studies.
To investigate the impact of water on the amorphous mono-HCl salt, the material was stored at various RH conditions controlled by saturated salt solutions. Each material was checked by PLM (morphology), KF (water content), and mDSC (Tg value) after 3 days.

[7] = Equilibrium solubility at 25° C.; format: physicochemical; details: thermodynamic from solid
Excerpt: as §2

[8] = Solubility in water and aqueous acid media; format: physicochemical; details: thermodynamic from solid
Procedure: A weighed sample is treated with aliquots of the test solvent at room temperature or elevated temperature. Complete dissolution of the test material is determined by visual inspection. Solubility is estimated based on the total solvent used to provide complete dissolution. The actual solubility may be greater than the value calculated because of the use of solvent aliquots that were too large or due to a slow rate of dissolution. […] If complete dissolution is achieved as a result of only one aliquot addition, the solubility is expressed as “greater than”. Solubility of a salt may be expressed as the mass of salt dissolved per unit volume of solution, (denoted as, for example, “mg/mL”), or as the free base equivalent (denoted as, for example, “mgA/mL”).
as §1

[9] = 0.1M phosphate buffer, pH 7.5, aqueous buffer, initial pH 7.5
[10] = FeSSIF (fed-state simulated intestinal fluid), pH 5.03, fessif, initial pH 5.03
[11] = SGF (simulated gastric fluid), pH 1.3, simulated gastric fluid, initial pH 1.3
[12] = simulated gastric fluid (SGF), pH 1.3, simulated gastric fluid, SGF (simulated gastric fluid), initial pH 1.3

SMILES: CCN(CC)C(=O)c1ccc([C@H](c2cccc(N)c2)N2CCN(Cc3ccc(F)cc3)CC2)cc1 [Compound A1, 4-{(R)-(3-aminophenyl)[4-(4-fluorobenzyl)piperazin-1-yl]methyl}-N,N-diethylbenzamide]
- pKa [1]: 7.26
- logD [2]: 2.53
- sedative/hyperactive properties ([3]; observations of test subjects in their home cage): does not possess sedative/hyperactive properties
- efficacy in the model ([3]; rat, 0.21 μmol/kg): not effective
- Percent of Control: Punished responding ([3]; rat, 0.21 μmol/kg by mouth): 107 ± 19.3% of Control
- Percent of Control: Unpunished responding ([3]; rat, 0.21 μmol/kg by mouth): 103 ± 1.63% of Control
- Rate of Responding: Punished responding ([3]; rat, 0.21 μmol/kg by mouth): 0.11 ± 0.02
- Rate of Responding: Unpunished responding ([3]; rat, 0.21 μmol/kg by mouth): 2.06 ± 0.11
- Percent of Control: Punished responding ([3]; rat, 0.63 μmol/kg by mouth): 273 ± 39.2% of Control
- Percent of Control: Unpunished responding ([3]; rat, 0.63 μmol/kg by mouth): 92.1 ± 5.12% of Control
- Rate of Responding: Punished responding ([3]; rat, 0.63 μmol/kg by mouth): 0.24 ± 0.03
- Rate of Responding: Unpunished responding ([3]; rat, 0.63 μmol/kg by mouth): 2.02 ± 0.14
- Percent of Control: Punished responding ([3]; rat, 2.1 μmol/kg by mouth): 298 ± 132% of Control
- Percent of Control: Unpunished responding ([3]; rat, 2.1 μmol/kg by mouth): 106 ± 5.60% of Control
- Rate of Responding: Punished responding ([3]; rat, 2.1 μmol/kg by mouth): 0.18 ± 0.04
- Rate of Responding: Unpunished responding ([3]; rat, 2.1 μmol/kg by mouth): 1.95 ± 0.15
- increase in punished responding (maximally efficacious dose) ([3]; rat, 2.11 μmol/kg): about 300%
- Percent of Control: Punished responding ([3]; rat, 6.3 μmol/kg by mouth): 207 ± 67.2% of Control
- Percent of Control: Unpunished responding ([3]; rat, 6.3 μmol/kg by mouth): 106 ± 2.94% of Control
- Rate of Responding: Punished responding ([3]; rat, 6.3 μmol/kg by mouth): 0.17 ± 0.03
- Rate of Responding: Unpunished responding ([3]; rat, 6.3 μmol/kg by mouth): 1.92 ± 0.13
- Percent of Control: Punished responding ([3]; rat, 21.1 μmol/kg by mouth): 272 ± 100% of Control
- Percent of Control: Unpunished responding ([3]; rat, 21.1 μmol/kg by mouth): 95.5 ± 4.08% of Control
- Rate of Responding: Punished responding ([3]; rat, 21.1 μmol/kg by mouth): 0.20 ± 0.04
- Rate of Responding: Unpunished responding ([3]; rat, 21.1 μmol/kg by mouth): 1.69 ± 0.12
- effect on unpunished responding ([3]; rat, at the doses tested (0.21 to 21.1 μmol/kg)): did not significantly decrease

SMILES: CCN(CC)C(=O)c1ccc([C@H](c2cccc(N)c2)N2CCN(Cc3ccc(F)cc3)CC2)cc1 [4-{(R)-(3-aminophenyl)[4-(4-fluorobenzyl)piperazin-1-yl]methyl}-N,N-diethylbenzamide]
- solubility at 3 h [4, 9]: 0.29 mg/mL (≈ 0.611 mM)
- solubility at 24 h [4, 9]: 0.1 mg/mL (≈ 0.211 mM)
- solubility at 3 h [4, 10]: 3.4 mg/mL (≈ 7.16 mM)
- solubility at 24 h [4, 10]: 3.06 mg/mL (≈ 6.45 mM)
- solubility at 3 h [4, 11]: 23 mg/mL (≈ 48.5 mM)
- solubility at 24 h [4, 11]: 22 mg/mL (≈ 46.4 mM)
- solubility at 3 h [4, 12]: 23.1 ± 0.12 mg/mL (≈ 48.7 mM)
- solubility at 24 h [4, 12]: 21.9 ± 0.23 mg/mL (≈ 46.1 mM)
- % Purity after 60° C./80% RH, 2 wks ([5]; 60° C./80% RH, 2 weeks): 94.4%
- % Purity after 60° C./80% RH, 4 wks ([5]; 60° C./80% RH, 4 weeks): 94.5%
- % Purity after 80° C., 2 wks ([5]; 80° C., 2 weeks): 98.7%
- % Purity after 80° C., 4 wks ([5]; 80° C., 4 weeks): 98.6%
- Purity after Photostability 3X ICH conditions ([5]; Photostability 3X ICH conditions): 82.3%
- Initial Purity ([5]; initial, before storage): 98.8%
- physical stability [6]: physically stable
- physical stability (appearance) [6]: deliquesced and became brown in color
- Water content ([6]; 23.1% RH (saturated KOAc)): 3.2%
- Water content ([6]; 43.3% RH (saturated K2CO3)): 5.0%
- Water content ([6]; 54.4% RH (saturated Mg(NO3)2)): 6.2%
- Water content ([6]; 75.5% RH (saturated NaCl)): 8.2%
- Water content ([6]; 85.1% RH (saturated KCl), listed as Amorphous Mono-HCl Salt of Compound A1): 9.5%
- Water content ([6]; 85.1% RH (saturated KCl), listed as amorphous mono-HCl salt): 9.5%
- Water content ([6]; 97.3% RH (saturated K2SO4)): 14.7%
- water content (Karl-Fisher) of the resulting material ([6]; after 17 days at 25° C./60% RH (open)): 6.1%
- water content of the initial material ([6]; initial material, before storage): about 2.8%
- solubility thermodynamic ([7]; 0.1 M citrate buffer, aqueous buffer, pH 4.5, Citrate 0.1M): 15.6 mg/mL (≈ 32.9 mM)
- solubility thermodynamic ([7]; 0.1 M phosphate buffer, aqueous buffer, pH 7.8, Phosphate 0.1M): 0.16 mg/mL (≈ 0.337 mM)
- solubility thermodynamic ([7]; aqueous buffer, 0.1N NaOH): 0.092 mg/mL (≈ 0.194 mM)
- solubility thermodynamic ([7]; simulated gastric fluid, 0.1N HCl): 21.6 mg/mL (≈ 45.5 mM)
- solubility thermodynamic ([7]; Pure water): 8.7 mg/mL (≈ 18.3 mM)
- solubility ([8]; 0.1M phosphate acid, pH 3.3, aqueous buffer, 0.1M phosphate acid, pH=3.3, read-out: solubility in 0.1M phosphate acid): > 40 mg/mL
- solubility ([8]; 0.1M phosphate acid, pH 3.5, aqueous buffer, 0.1M phosphate acid, pH=3.5, read-out: solubility in 0.1M phosphate acid): 12 mg/mL (≈ 25.3 mM)
- solubility ([8]; 0.1 M phosphoric acid, pH 3.3, aqueous buffer, ambient temperature, pH of about 3.3 (0.1 M phosphoric acid), read-out: solubility in water (0.1 M phosphoric acid)): > 40 mg/mL
- solubility ([8]; 0.1 M phosphoric acid, pH 3.5, aqueous buffer, ambient temperature, pH of about 3.5 (0.1 M phosphoric acid), read-out: solubility in water (0.1 M phosphoric acid)): ~12 mg/mL (≈ 25.3 mM)
- solubility ([8]; 0.1N HCl, pH 2, simulated gastric fluid, 0.1N HCl, pH about 2, read-out: solubility in 0.1N HCl): 24.9 mg/mL (≈ 52.5 mM)
- solubility ([8]; water, pH 3.8, water, ambient temperature, water with a pH of about 3.8, read-out: solubility in water): ~24 mg/mL (≈ 50.6 mM)
- solubility ([8]; water, pH 3.8, water, water, pH=3.8, read-out: solubility in water): 24 mg/mL (≈ 50.6 mM)
- solubility ([8]; water, pH 4.2, water, ambient temperature, water with a pH of about 4.2, read-out: solubility in water): > 41 mg/mL
- solubility ([8]; water, pH 4.2, water, water, pH=4.2, read-out: solubility in water): > 41 mg/mL
